Assay results from patent US5215982A, “Cephem compounds” (Fujisawa Pharmaceutical Co., Ltd., priority 1989, dated 1993).

System: E. coli 31
Experiment: In vitro antibacterial activity, two-fold agar-plate dilution method (MIC)
Format: cell-based
Conditions: Escherichia coli, 10^6 viable cells per ml, heart infusion agar, 37° C., 20 hours, read-out: MIC (minimal inhibitory concentration)
Procedure: Now in order to show the utility of the object compound (I), the test data on MIC (minimal inhibitory concentration) of a representative compound of the compound (I) are shown in the following.
In vitro antibacterial activity was determined by the two-fold agar-plate dilution method as described below.
One loopful of an overnight culture of each test strain in Trypticase-soy broth (10^6 viable cells per ml) was streaked on heart infusion agar (HI-agar) containing graded concentrations of representative test compound, and the minimal inhibitory concentration (MIC) was expressed in terms of μg/ml after incubation at 37° C. for 20 hours.

CON=C(C(=O)NC1C(=O)N2C(C(=O)[O-])=C(C[n+]3ccc4[nH]ccn43)CSC12)c1nsc(N)n1 (stereo not drawn) [Test Compound (1), 7β-[2-(5-Amino-1,2,4-thiadiazol-3-yl)-2-methoxyiminoacetamido]-3-[5-(1H-imidazo[1,2-b]pyrazolio)]methyl-3-cephem-4-carboxylate (syn isomer)]
MIC: ≤ 0.025 µg/mL
